Experimental data as given in paper PMC7932537, “Quantitative profiling of protease specificity” (PLoS Computational Biology, 2021).

Columns and labels:
Format in all cases: biochemical, human
MMP-2 [1] = assay: Substrate phage display with NGS: relative probability (RP) of P3-P1' tetramer clusters; details: RP of matching tetramer of the cleavage site; unique part of MMP9 selectome
MMP-9 [2] = assay: N-terminomic (TMT) analysis of MMP-treated HEK293 secretome: isotopic enrichment of novel N-termini; details: for isotopic enrichment (log2(ratio)): MMP9 cleavages in HEK293 cell proteins, determined by LC-MS/MS, log2(ratio) range (>3σ, 2σ-3σ, 1σ-2σ)
Method: (§1) This was done to achieve a reasonable compromise between the false positive and false negative rates based on the statistical model developed by the authors. […] (See Methods for details).
(§2) HEK293 cells were seeded in 150-mm tissue culture dishes (Corning) and grown to confluence. The confluent cultures were washed with PBS several times to remove serum proteins and kept in serum-free DMEM supplemented with 1 μM GM6001 for 72 hours at 37 C, 5% CO2. The conditioned media was centrifuged at 10,000 x g for 30 minutes at 4 C and concentrated ~100-fold using Centricon Plus-70 (AMD Millipore) 3-kDa m.w. cut-off ultrafilter, and the buffer was exchanged to 50 mM HEPES pH 7.0 containing 150 mM NaCl and 10 mM CaCl2 (Reaction Buffer) using a PD-10 desalting column (GE Healthcare). Aliquots containing 240 μg total protein were incubated at 37 C in the presence of 750 nM MMP2 or 9 or the Reaction Buffer alone for 2 hours. Each reaction was carried out in duplicate. The reactions were stopped by addition of 20 mM EDTA and subjected to denaturation/reduction (4M Urea and 10 mM TCEP, 1 h, 22°C) and alkylation (20 mM iodoacetamide, 30 min, 22°C, in dark). […] The TMT-labeled samples were pooled together, and subjected to TCA precipitation (20% TCA, 16 h, 4°C). Each pellet was washed with -20°C acetone, recovered in 50 mM Tris-HCl pH 8.0, and then digested with trypsin/Lys-C (Promega) for 16 h at 37°C. Digestions were stopped with 0.2% TFA and centrifuged to remove insoluble material. The supernatants were then desalted using Sep-Pak C18 cartridge (50 mg), and then lyophilized.
(§3) Dried pooled sample was reconstituted in 20 mM ammonium formate pH ~10 and fractionated using a Waters Acquity BEH C18 column (2.1x 15 cm, 1.7 μm pore size) mounted on an M-Class Ultra Performance Liquid Chromatography (UPLC) system (Waters). […] A total of 32 fractions were collected and pooled in a non-contiguous manner into 16 total fractions. Pooled fractions were dried to completeness in a SpeedVac concentrator prior to mass spectrometry analysis.
(§4) Dried peptide fractions were reconstituted with 2% ACN-0.1% FA and analyzed by LC-MS/MS using a Proxeon EASY nanoLC system (Thermo Fisher Scientific) coupled to a Q-Exactive Plus mass spectrometer (Thermo Fisher Scientific). […] The mass spectrometer was operated in positive data-dependent acquisition mode. MS1 spectra were measured with a resolution of 70,000 (AGC target: 1e6; mass range: 350–1700 m/z).
(§5) The false discovery rate (FDR) filter for spectrum and protein identification was set to 1%. Carbamidomethylation of cysteines was searched as a fixed modification, while oxidation of methionines and N-terminal acetylation were searched as variable modifications. Enzyme was set to trypsin in a semispecific mode and a maximum of two missed cleavages was allowed for searching. To obtain quantification of the TMT-labeled N-termini, two independent searches were performed–one with TMT10plex MS2 N-terminal reporter quantification and the other for quantification of N-terminal and lysine sidechain.

MMP-2 [3] = assay: as above; details: for isotopic enrichment (log2(ratio)): MMP2 cleavages in HEK293 cell proteins, determined by LC-MS/MS, novel N-termini, sections log2(ratio) >3σ, 2σ-3σ, 1σ-2σ, RP above 4.5
Method: as §1, §2, §3, §4, §5

MMP-9 [4] = assay: Substrate phage display with NGS: relative probability (RP) of P3-P1' tetramer clusters; details: RP of matching tetramer of the cleavage site; unique part of MMP9 selectome
[5] = HEK293 secretome, 750 nM MMP-9, 2 h, 37 C, TMT reporter ratio vs untreated control, LC-MS/MS, duplicate
[6] = HEK293 secretome, 750 nM MMP-2, 2 h, 37 C, TMT reporter ratio vs untreated control, LC-MS/MS, duplicate
[7] = MMP9, HEK293 proteins, common set of MMP2-9 selectome, LC-MS/MS
[8] = MS detected cleavage sequence, HEK293 proteins, common MMP2-9 selectome
[9] = MMP2 cleaved HEK293 proteins, common set of MMP2-9 selectome, LC-MS/MS
[10] = MS detected cleavage sequence, HEK293 proteins, unique part of MMP2 selectome

Substance	isotopic enrichment (log2(ratio)) (MMP-9 [2])	isotopic enrichment (log2(ratio)) (acc.to MMP9) (MMP-9 [2]; [7])	isotopic enrichment (log2(ratio)) (acc.to MMP9) (MMP-9 [2]; [8])	isotopic enrichment (log2(ratio)) (acc.to MMP2) (MMP-2 [3]; [9])	isotopic enrichment (log2(ratio)) (acc.to MMP2) (MMP-2 [3]; [8])	further results
DSTMN-MLGGGG	1.618	–	–	–	–	relative probability (RP) (acc.to MMP2) (MMP-2 [1]): 0; isotopic enrichment (log2(ratio)) (acc.to MMP9) (MMP-9 [2]; [5]): 1.618 log2(ratio); isotopic enrichment (log2(ratio)) (acc.to MMP2) (MMP-2 [3]; [6]): 0.8797 log2(ratio); relative probability (RP) (acc.to MMP9) (MMP-9 [4]): 6.67
FCPMA-AHEEIC [MS detected cleavage site in Fibronectin (P02751)]	1.774	–	–	–	–	relative probability (RP) (acc.to MMP2) (MMP-2 [1]): 3.68; isotopic enrichment (log2(ratio)) (acc.to MMP9) (MMP-9 [2]; [5]): 1.774 log2(ratio); isotopic enrichment (log2(ratio)) (acc.to MMP2) (MMP-2 [3]; [6]): 0.5261 log2(ratio); relative probability (RP) (acc.to MMP9) (MMP-9 [4]): 16.94
GKPFK-IQVLVE [MS detected cleavage site in Galectin-3 (P17931)]	1.459	–	–	–	–	relative probability (RP) (acc.to MMP2) (MMP-2 [1]): 1.13; isotopic enrichment (log2(ratio)) (acc.to MMP9) (MMP-9 [2]; [5]): 1.459 log2(ratio); isotopic enrichment (log2(ratio)) (acc.to MMP2) (MMP-2 [3]; [6]): 0.7991 log2(ratio); relative probability (RP) (acc.to MMP9) (MMP-9 [4]): 34.84
KSIYY-ITGESK [MS detected cleavage site in Heat shock protein HSP 90-beta (P08238)]	3.962	–	–	–	–	isotopic enrichment (log2(ratio)) (acc.to MMP9) (MMP-9 [2]; [5]): 3.962 log2(ratio); isotopic enrichment (log2(ratio)) (acc.to MMP2) (MMP-2 [3]; [6]): 0.3785 log2(ratio); relative probability (RP) (acc.to MMP9) (MMP-9 [4]): 14.54
PEPPP-LSGAPQ	1.9855	1.9855	1.9855 log2(ratio)	1.367	1.367 log2(ratio)	–
PFPDG-LAEDID	3.878	–	3.878 log2(ratio)	–	0.9928 log2(ratio)	–
PQAKA-LLQDKD	1.48	1.48	1.48 log2(ratio)	–	0.9928 log2(ratio)	–
PTAAA-IAYGLD	–	0.8074	–	1.585	–	isotopic enrichment (log2(ratio)) (MMP-2 [3]): 1.585 log2(ratio)
PTPVP-VVGSQM	2.707	2.707	2.707 log2(ratio)	1.915	1.915 log2(ratio)	–
QLNAQ-LAAGNP	–	–	–	–	–	isotopic enrichment (log2(ratio)) (acc.to MMP9) (MMP-9 [2]; [10]): 0.8237 log2(ratio); isotopic enrichment (log2(ratio)) (acc.to MMP2) (MMP-2 [3]; [10]): 1.66 log2(ratio)
QSPVA-VSQSKP	4.621	4.621	4.621 log2(ratio)	4.031	4.031 log2(ratio)	–
RKATP-YTFPGG	1.753	1.753	1.753 log2(ratio)	1.541	1.541 log2(ratio)	–
RTLRA-VCGQPG	1.47	–	1.47 log2(ratio)	–	0.2987 log2(ratio)	–
SDPLT-LLQADT	2.254	2.254	2.254 log2(ratio)	1.22	2.4906 log2(ratio)	isotopic enrichment (log2(ratio)) (MMP-2 [3]): 1.22 log2(ratio)
SEPAD-FKVDED	–	1.104	–	1.891	–	isotopic enrichment (log2(ratio)) (MMP-2 [3]): 1.891 log2(ratio)
SHLGR-YLAADK	–	–	–	–	–	isotopic enrichment (log2(ratio)) (acc.to MMP9) (MMP-9 [2]; [10]): -1.0291 log2(ratio); isotopic enrichment (log2(ratio)) (acc.to MMP2) (MMP-2 [3]; [10]): 2.483 log2(ratio)
SLARA-YSSFNP	2.539	2.539	2.539 log2(ratio)	2.269	2.269 log2(ratio)	–

Substance	isotopic enrichment (log2(ratio)) (MMP-9 [2])	isotopic enrichment (log2(ratio)) (acc.to MMP9) (MMP-9 [2]; [7])	isotopic enrichment (log2(ratio)) (acc.to MMP9) (MMP-9 [2]; [8])	isotopic enrichment (log2(ratio)) (acc.to MMP2) (MMP-2 [3]; [9])	isotopic enrichment (log2(ratio)) (acc.to MMP2) (MMP-2 [3]; [8])	further results
SSAAA-LSLCEG	–	0.3785	–	1.036	–	isotopic enrichment (log2(ratio)) (MMP-2 [3]): 1.036 log2(ratio)
SSPRH-SEAATA	4.654	4.654	4.654 log2(ratio)	3.599	3.599 log2(ratio)	–
STMNM-LGGGGS	–	–	–	–	–	isotopic enrichment (log2(ratio)) (acc.to MMP9) (MMP-9 [2]; [10]): 0.9184 log2(ratio); isotopic enrichment (log2(ratio)) (acc.to MMP2) (MMP-2 [3]; [10]): 2.417 log2(ratio)
SYAGS-LAEPYE	–	0.9635	–	1.521	–	isotopic enrichment (log2(ratio)) (MMP-2 [3]): 1.521 log2(ratio)
TDPSK-LDSGKE	2.9782	2.9782	2.9782 log2(ratio)	1.911	1.911 log2(ratio)	–
TGPRF-LISDRD	2.331	2.331	2.331 log2(ratio)	1.669	1.669 log2(ratio)	–
TQQAQ-LAAAAE	–	–	–	–	–	isotopic enrichment (log2(ratio)) (acc.to MMP9) (MMP-9 [2]; [10]): 0.8319 log2(ratio); isotopic enrichment (log2(ratio)) (acc.to MMP2) (MMP-2 [3]; [10]): 2.74 log2(ratio)
TRPLA-VEVVTE	4.995	4.995	4.995 log2(ratio)	4.353	4.353 log2(ratio)	–
VAAKN-LQEAEE	2.192	2.192	2.192 log2(ratio)	1.485	1.485 log2(ratio)	–
VCPRG-YVTSTD	5.174	5.174	5.174 log2(ratio)	2.108	2.108 log2(ratio)	–
VLPVN-VTDYCQ	3.756	–	3.756 log2(ratio)	–	0.7225 log2(ratio)	–
VNPVL-LSGPEA	2.457	2.457	2.457 log2(ratio)	1.599	1.599 log2(ratio)	–
VTPAN-ASGIND	–	–	–	–	–	isotopic enrichment (log2(ratio)) (acc.to MMP9) (MMP-9 [2]; [10]): 1.864 log2(ratio); isotopic enrichment (log2(ratio)) (acc.to MMP2) (MMP-2 [3]; [10]): 0.9486 log2(ratio)
VVPFG-VPASAT	2.014	–	2.014 log2(ratio)	–	0.189 log2(ratio)	–
YNPMA-LYGSVP	1.709	–	1.709 log2(ratio)	–	0.669 log2(ratio)	–
YRPVA-VALDTK	2.604	2.604	2.604 log2(ratio)	1.934	1.934 log2(ratio)	–
